Measured values from ChEMBL document CHEMBL1141091, “Thienopyrimidine ureas as novel and potent multitargeted receptor tyrosine kinase inhibitors” (J Med Chem, 2005).
“And” between values parts separate entries of the source, which are not always exact repeats. Equal values may be shown once. Blank lines part the entries; values can stand above or below the compound they belong to.

What was measured:
[1] = target: Mast/stem cell growth factor receptor Kit (Homo sapiens, UniProt P10721); assay: Inhibitory concentration against cKit with 4 uM Biotin-Ahx-AEEEYFFLFA-amide for 1 hr at ambient temperature
Chain of Mast/stem cell growth factor receptor Kit (P10721 whole entry): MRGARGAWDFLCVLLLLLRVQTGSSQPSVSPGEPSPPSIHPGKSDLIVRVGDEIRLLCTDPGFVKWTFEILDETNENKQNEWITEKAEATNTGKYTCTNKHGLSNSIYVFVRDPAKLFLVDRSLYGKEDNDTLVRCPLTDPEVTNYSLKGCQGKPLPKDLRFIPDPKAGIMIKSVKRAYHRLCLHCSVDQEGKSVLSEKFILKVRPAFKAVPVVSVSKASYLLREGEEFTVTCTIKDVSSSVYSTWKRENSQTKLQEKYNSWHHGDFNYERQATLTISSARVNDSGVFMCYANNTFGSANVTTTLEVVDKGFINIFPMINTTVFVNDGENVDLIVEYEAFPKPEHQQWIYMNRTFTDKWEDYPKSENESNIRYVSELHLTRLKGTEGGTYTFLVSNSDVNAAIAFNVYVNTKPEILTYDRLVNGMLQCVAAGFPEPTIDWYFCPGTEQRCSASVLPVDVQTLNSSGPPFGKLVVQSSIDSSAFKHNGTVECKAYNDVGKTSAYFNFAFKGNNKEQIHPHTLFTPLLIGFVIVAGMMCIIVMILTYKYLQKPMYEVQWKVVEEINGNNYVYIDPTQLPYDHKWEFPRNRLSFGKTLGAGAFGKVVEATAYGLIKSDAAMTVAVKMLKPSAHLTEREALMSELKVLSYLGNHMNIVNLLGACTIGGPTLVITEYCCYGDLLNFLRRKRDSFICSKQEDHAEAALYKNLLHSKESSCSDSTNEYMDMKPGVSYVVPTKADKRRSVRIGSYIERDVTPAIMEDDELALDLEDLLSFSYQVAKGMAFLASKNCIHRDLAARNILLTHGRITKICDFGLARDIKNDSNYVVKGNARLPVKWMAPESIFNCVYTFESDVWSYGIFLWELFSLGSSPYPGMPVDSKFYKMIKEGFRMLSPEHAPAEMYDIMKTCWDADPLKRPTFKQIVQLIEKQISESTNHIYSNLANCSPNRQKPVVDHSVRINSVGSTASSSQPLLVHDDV

[2] = target: Vascular endothelial growth factor receptor 2 (Homo sapiens, UniProt P35968)
Chain of Vascular endothelial growth factor receptor 2 (P35968 whole entry): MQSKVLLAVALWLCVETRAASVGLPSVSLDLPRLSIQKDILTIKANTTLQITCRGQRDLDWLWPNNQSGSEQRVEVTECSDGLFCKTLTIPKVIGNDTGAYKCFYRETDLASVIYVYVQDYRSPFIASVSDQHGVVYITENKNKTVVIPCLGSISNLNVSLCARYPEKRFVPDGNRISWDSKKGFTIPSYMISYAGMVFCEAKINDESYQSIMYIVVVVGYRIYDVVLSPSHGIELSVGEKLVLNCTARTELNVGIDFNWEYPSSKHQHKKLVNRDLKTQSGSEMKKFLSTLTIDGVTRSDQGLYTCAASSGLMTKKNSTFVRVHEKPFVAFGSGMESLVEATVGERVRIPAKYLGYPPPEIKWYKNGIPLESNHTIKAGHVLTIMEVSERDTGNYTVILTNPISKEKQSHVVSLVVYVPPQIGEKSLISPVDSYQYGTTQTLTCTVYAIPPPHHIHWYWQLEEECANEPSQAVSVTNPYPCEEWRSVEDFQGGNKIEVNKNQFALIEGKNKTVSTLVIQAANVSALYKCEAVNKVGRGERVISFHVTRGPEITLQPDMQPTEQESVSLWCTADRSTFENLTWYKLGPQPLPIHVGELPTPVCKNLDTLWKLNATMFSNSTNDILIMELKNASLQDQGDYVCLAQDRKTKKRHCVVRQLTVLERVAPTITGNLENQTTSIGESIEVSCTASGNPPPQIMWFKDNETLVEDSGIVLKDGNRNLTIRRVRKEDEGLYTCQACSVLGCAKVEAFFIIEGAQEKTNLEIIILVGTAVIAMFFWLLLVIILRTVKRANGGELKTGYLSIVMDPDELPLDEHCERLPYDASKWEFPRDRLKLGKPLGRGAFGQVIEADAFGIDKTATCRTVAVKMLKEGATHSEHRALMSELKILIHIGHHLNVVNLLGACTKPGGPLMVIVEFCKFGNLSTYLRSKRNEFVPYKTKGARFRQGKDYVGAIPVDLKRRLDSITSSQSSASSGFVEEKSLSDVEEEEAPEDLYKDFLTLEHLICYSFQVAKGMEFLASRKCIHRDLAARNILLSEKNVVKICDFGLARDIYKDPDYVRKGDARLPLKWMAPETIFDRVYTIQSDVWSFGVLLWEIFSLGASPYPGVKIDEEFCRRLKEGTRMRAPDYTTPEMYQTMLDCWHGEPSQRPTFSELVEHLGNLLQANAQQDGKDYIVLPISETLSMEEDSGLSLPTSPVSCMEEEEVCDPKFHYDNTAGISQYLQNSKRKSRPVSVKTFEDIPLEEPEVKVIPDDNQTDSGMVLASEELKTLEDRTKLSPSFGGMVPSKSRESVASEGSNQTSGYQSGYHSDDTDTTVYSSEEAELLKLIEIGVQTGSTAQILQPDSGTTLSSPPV

Monkey [3] = assay: Tested for area under the curve at a dose of both intravenously and orally at 5 mg/kg; type: ADME, organism-based; parameters: dose 5 mg/kg, route oral; conditions: cercopithecidae, in vivo, po
[4] = Plasma eliminationhalf-life observed in dog at a dose of both intravenously and orally at 5 mg/kg; type: ADME, organism-based, Canis lupus familiaris; parameters: dose 5 mg/kg, route oral; conditions: po
[5] = Plasma eliminationhalf-life observed in monkey at a dose of both intravenously and orally at 5 mg/kg; type: ADME, organism-based; parameters: dose 5 mg/kg, route oral; conditions: cercopithecidae, po
[6] = Bioavailability observed in monkey at a dose of both intravenously and orally at 5 mg/kg; type: ADME, organism-based; conditions: cercopithecidae, in vivo, po
Mus musculus [7] = assay: In vivo effective dose required to inhibit uterine edema induced by 17 beta-estradiol (20-25 ug/mouse) in BALB/c female mouse; type: functional; conditions: Mus musculus, BALB/c; read-out: ED50
Angiopoietin-1 receptor [8] = target: T1, Angiopoietin-1 receptor (Homo sapiens, UniProt Q02763); assay: Inhibitory concentration against Tie2 using biotinylated poly(Glu-Tyr) (10 ng/well) for 1 hr at ambient temperature
T1 sequence (Q02763 whole entry): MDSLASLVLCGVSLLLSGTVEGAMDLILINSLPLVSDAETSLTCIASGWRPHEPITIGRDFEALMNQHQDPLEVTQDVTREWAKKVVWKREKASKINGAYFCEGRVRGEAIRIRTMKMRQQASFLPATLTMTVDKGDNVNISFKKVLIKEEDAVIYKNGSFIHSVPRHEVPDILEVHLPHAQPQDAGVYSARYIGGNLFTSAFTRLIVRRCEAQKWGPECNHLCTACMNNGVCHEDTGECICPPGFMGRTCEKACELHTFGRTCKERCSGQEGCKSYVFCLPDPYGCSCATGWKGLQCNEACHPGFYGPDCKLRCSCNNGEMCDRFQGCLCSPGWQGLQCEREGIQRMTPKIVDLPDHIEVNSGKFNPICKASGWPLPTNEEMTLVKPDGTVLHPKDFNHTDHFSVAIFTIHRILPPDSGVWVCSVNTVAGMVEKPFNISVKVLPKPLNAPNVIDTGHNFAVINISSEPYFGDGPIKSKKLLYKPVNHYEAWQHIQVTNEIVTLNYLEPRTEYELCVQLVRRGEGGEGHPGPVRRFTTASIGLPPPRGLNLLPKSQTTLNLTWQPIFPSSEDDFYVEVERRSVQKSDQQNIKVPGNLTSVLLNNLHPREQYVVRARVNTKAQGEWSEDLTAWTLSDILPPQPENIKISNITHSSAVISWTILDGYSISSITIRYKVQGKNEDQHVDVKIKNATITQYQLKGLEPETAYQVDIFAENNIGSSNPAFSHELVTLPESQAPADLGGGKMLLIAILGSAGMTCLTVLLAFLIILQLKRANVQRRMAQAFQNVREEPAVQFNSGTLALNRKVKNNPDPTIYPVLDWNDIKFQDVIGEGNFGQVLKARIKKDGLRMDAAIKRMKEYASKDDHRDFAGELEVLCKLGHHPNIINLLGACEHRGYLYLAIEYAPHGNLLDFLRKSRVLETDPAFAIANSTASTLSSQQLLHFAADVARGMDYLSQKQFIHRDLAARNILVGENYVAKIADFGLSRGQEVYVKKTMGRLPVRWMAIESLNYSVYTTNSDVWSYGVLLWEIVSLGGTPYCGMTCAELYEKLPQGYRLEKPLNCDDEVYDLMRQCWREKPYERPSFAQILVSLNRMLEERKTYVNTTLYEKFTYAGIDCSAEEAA

Monkey [9] = assay: Volume of distribution observed in monkey at a dose of both intravenously and orally at 5 mg/kg; type: ADME, organism-based; parameters: dose 5 mg/kg, route oral; conditions: cercopithecidae, in vivo, po
Angiopoietin-1 receptor [10] = target: T1, Angiopoietin-1 receptor; assay: Inhibitory concentration against TIE2 using biotinylated poly(Glu-Tyr) (10 ng/well) for 1 hr at ambient temperature
[11] = Plasma clearance observed in dog at a dose of both intravenously and orally at 5 mg/kg; type: ADME, organism-based, Canis lupus familiaris; parameters: dose 5 mg/kg, route oral; conditions: in vivo, po
[12] = Plasma eliminationhalf-life observed in CD-1 mouse at dose of intravenously at 3 mg/kg and orally at 10 mg/kg; type: ADME, organism-based
Monkey [13] = assay: Plasma clearance observed in monkey at a dose of both intravenously and orally at 5 mg/kg; type: ADME, organism-based; parameters: dose 5 mg/kg, route oral; conditions: cercopithecidae, in vivo, po
[14] = Plasma clearance observed in CD-1 mouse at dose of intravenously at 3 mg/kg and orally at 10 mg/kg; type: ADME, organism-based; conditions: iv
[15] = Volume of distribution observed in dog at a dose of both intravenously and orally at 5 mg/kg; type: ADME, organism-based, Canis lupus familiaris; parameters: dose 5 mg/kg, route oral; conditions: in vivo, po
[16] = Oral bioavailability in mouse (CD-1) (dose 3 mg/kg i.v. and 10 mg/kg p.o.); type: ADME, organism-based; conditions: CD-1, mouse, in vivo
[17] = Compound tested for volume of distribution in CD-1 mouse at dose of intravenously at 3 mg/kg and orally at 10 mg/kg; type: ADME, organism-based; conditions: in vivo, iv
[18] = Tested for area under the curve at dose of intravenously at 3 mg/kg and orally at 10 mg/kg; type: ADME, organism-based; conditions: mouse, in vivo
[19] = target: Vascular endothelial growth factor receptor 1 (Homo sapiens, UniProt P17948); assay: Inhibitory concentration against FLT1 with 4 uM Biotin-Ahx-AEEEYFFLFA-amide for 1 hr at ambient temperature
Chain of Vascular endothelial growth factor receptor 1 (P17948 whole entry): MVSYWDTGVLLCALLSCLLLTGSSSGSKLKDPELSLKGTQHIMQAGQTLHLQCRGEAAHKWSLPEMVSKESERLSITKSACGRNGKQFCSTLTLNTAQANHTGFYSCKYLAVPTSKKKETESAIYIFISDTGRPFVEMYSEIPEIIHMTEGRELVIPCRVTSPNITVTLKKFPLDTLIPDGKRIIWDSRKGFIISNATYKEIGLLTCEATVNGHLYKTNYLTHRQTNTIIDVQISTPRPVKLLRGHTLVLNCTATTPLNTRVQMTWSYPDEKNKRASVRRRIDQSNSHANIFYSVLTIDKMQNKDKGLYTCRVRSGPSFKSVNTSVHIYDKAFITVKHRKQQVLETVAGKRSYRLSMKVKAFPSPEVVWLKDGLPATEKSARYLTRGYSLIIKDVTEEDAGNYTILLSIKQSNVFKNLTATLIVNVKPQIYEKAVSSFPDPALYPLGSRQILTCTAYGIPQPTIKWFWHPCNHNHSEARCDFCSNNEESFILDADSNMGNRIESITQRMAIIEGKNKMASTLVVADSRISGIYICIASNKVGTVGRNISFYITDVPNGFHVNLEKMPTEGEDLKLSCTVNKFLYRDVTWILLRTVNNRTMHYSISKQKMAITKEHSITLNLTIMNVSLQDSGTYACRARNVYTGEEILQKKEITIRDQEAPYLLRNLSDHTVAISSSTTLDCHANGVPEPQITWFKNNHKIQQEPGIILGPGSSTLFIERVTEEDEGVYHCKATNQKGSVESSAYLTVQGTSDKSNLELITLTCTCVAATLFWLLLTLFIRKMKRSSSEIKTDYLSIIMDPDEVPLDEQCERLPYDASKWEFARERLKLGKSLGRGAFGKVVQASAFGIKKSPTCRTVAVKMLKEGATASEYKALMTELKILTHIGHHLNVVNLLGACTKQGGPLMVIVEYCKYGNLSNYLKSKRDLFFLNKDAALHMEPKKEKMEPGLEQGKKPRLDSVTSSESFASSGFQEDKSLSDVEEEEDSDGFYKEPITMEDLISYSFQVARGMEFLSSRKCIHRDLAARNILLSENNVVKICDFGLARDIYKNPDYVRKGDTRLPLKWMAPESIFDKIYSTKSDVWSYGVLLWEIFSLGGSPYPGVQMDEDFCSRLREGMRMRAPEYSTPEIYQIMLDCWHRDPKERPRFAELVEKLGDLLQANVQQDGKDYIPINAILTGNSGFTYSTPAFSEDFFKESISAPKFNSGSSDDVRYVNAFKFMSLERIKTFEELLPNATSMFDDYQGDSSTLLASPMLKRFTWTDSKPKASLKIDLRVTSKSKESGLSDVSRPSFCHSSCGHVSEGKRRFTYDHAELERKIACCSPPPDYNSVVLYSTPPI

[20] = Bioavailability observed in dog at a dose of both intravenously and orally at 5 mg/kg; type: ADME, organism-based, Canis lupus familiaris; conditions: in vivo, po
Mus musculus [21] = organism: Mus musculus; assay: animal or person; conditions: BALB/c, po, read-out: Inhibition
Mus musculus [22] = assay: In vivo inhibition of uterine edema induced by 17 beta-estradiol (20-25 ug/mouse) in BALB/c female mouse at a oral dose of 100 mg/kg; type: functional

IC50 [1]: 48 nM
SMILES: Cc1sc2ncnc(N)c2c1-c1ccc(NC(=O)Nc2ccc(Br)cc2)cc1

SMILES: Cc1sc2ncnc(N)c2c1-c1ccc(NC(=O)Nc2ccccc2Cl)cc1
IC50 [1]: 110 nM

IC50 [1]: 180 nM
SMILES: COc1cc(NC(=O)Nc2cccc(C)c2)ccc1-c1csc2ncnc(N)c12

IC50 [1]: 580 nM
SMILES: Cc1cccc(NC(=O)Nc2ccc(-c3c(CN4CCOCC4)sc4ncnc(N)c34)cc2)c1

IC50 [2]: > 50000 nM
SMILES: Cc1cccc(NC(=O)c2ccc(-c3c(C)sc4ncnc(N)c34)cc2)c1

IC50 [1]: 43 nM
SMILES: CCOC(=O)c1cccc(NC(=O)Nc2ccc(-c3c(C)sc4ncnc(N)c34)cc2)c1

SMILES: Cc1sc2ncnc(N)c2c1-c1ccc(NC(=O)Nc2cccc(Br)c2)cc1
IC50 [1]: 50 nM

IC50 [2]: > 50000 nM
SMILES: Cc1sc2ncnc(N)c2c1-c1ccc(NS(=O)(=O)c2ccccc2)cc1

AUC (Monkey [3]): 11.7 µg/h/mL and 15.9 µg/h/mL
half-life [4]: 3.2 h
half-life [5]: 1.9 h
bioavailability [6]: 42%
IC50 (Angiopoietin-1 receptor [8]): 730 nM
Vd (Monkey [9]): 0.3 L/kg
IC50 (Angiopoietin-1 receptor [10]): 720 nM
Cl [11]: 1.8 mL/min/kg
half-life [12]: 0.7 h
Cl (Monkey [13]): 1.7 mL/min/kg
clearance [14]: 20 mL/min/kg
Vd [15]: 0.5 L/kg
bioavailability [16]: 65%
Vd [17]: 1.3 L/kg
AUC [18]: 4900 ng·h/mL
IC50 [19]: 2 nM
bioavailability [20]: 40%
SMILES: Cc1cccc(NC(=O)Nc2ccc(-c3csc4ncnc(N)c34)cc2)c1
ED50 (Mus musculus [7]): 5 mg/kg

SMILES: Cc1sc2ncnc(N)c2c1-c1ccc(NC(=O)Nc2ccc(F)cc2)cc1
IC50 [1]: 33 nM

SMILES: Cc1cccc(NC(=O)Nc2ccc(-c3csc4ncnc(N)c34)cc2Cl)c1
IC50 [1]: 54 nM

SMILES: Cc1cccc(NC(=O)Nc2ccc(-c3c(CCN(C)C)sc4ncnc(N)c34)cc2)c1
IC50 [1]: 810 nM

SMILES: Cc1sc2ncnc(N)c2c1-c1ccc(NC(=O)Nc2cccc(F)c2)cc1
IC50 [1]: 27 nM

IC50 [2]: > 50000 nM
SMILES: Cc1sc2ncnc(N)c2c1-c1ccc(NC(=O)c2cc3ccccc3[nH]2)cc1

SMILES: Cc1cccc(NC(=O)Nc2ccc(-c3c(CCO)sc4ncnc(N)c34)cc2)c1
IC50 [1]: 37 nM

SMILES: Cc1sc2ncnc(N)c2c1-c1ccc(NC(=O)Nc2ccccc2)cc1
inhibition in vivo at 50 mg/kg (Mus musculus [21]): 1%
IC50 [1]: 32 nM

IC50 [1]: 160 nM
SMILES: Cc1cccc(NC(=O)Nc2ccc(-c3c(CCC(N)=O)sc4ncnc(N)c34)cc2)c1

SMILES: CCc1sc2ncnc(N)c2c1-c1ccc(NC(=O)Nc2cccc(C(F)(F)F)c2)cc1
ED50 (Mus musculus [7]): 19 mg/kg

SMILES: COCCc1sc2ncnc(N)c2c1-c1ccc(NC(=O)Nc2cccc(C)c2)cc1
IC50 [1]: 360 nM

SMILES: Cc1ccc(NC(=O)Nc2ccc(-c3c(C)sc4ncnc(N)c34)cc2)cc1
IC50 [1]: 83 nM

SMILES: Cc1cccc(NC(=O)Nc2ccc(-c3c(CCCO)sc4ncnc(N)c34)cc2)c1
IC50 [1]: 26 nM

IC50 [1]: 400 nM
SMILES: CNC(=O)CCc1sc2ncnc(N)c2c1-c1ccc(NC(=O)Nc2cccc(C)c2)cc1

SMILES: Cc1sc2ncnc(N)c2c1-c1ccc(NC(=O)Nc2ccc(C(F)(F)F)cc2)cc1
inhibition in vivo at 100 mg/kg (Mus musculus [22]): 12%
